We go through 13 compounds from PubChem BioAssay (NCI).

Assay in all cases: inhibition of tumour cell growth, NCI panel, 48 h
Test [1] deals with ACHN renal.
In test [2] the test system is CAKI-1 renal.
In test [3] the test system is EKVX NSCLC.
The test system of test [4] is NCI-H226 lung.
The test system of test [5] is OVCAR-8 ovarian.
For test [6], the system named is SF-268 CNS.
Test [7] relates to SK-MEL-5 melanoma.
Test [8] has as its system SK-OV-3 ovarian.
Test [9] concerns SNB-75 CNS.
In test [10] the test system is UACC-257 melanoma.

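All cell lines were grown in 96-well plates and treated with compound for 48 hours. TGI is the concentration that stops growth completely.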 Some results are limits rather than exact numbers.

In the case of `COC(=O)c1cnn2c1n[n+]([O-])c1ccccc12`, the TGI in [1], in test [2], in [3], in test [4], in test [5] and in test [6] was above 100 µM throughout. In addition, the TGI in test [7], in [8], in test [9] and in [10] was above 100 µM each time.
Take `COc1cc(C(c2ccc3c(c2)OCO3)N2C(=O)CCC2C(=O)O)cc(OC)c1OC` (stereo not given): the TGI in test [1], in test [2], in test [3], in test [4], in test [5] and in [6] was above 100 µM each time. In addition, the TGI in test [7], in test [8], in test [9] and in [10] was above 100 µM throughout.
As to `COC12c3ccccc3-c3ccccc3C1[C@H]1C(=O)OC(=O)[C@H]12` (stereo not given in full), the TGI in test [1], in test [2], in test [3], in test [4], in [5] and in test [6] was above 10 µM throughout. The TGI in test [7], in test [8], in test [9] and in [10] was above 10 µM throughout.
`CCC[C@H](C)C[C@H](C)C[C@H](C)/C=C(\C)[C@@H](O)[C@@H](C)C(=O)CC`: the TGI in test [1] was found to be 39 µM; in test [2], 37.4 µM; in test [3], 34.7 µM; in [4], 42.6 µM; in test [5], 39.4 µM; in test [6], 39.6 µM. The TGI in [7] was 36.1 µM; in [8], above 100 µM; in [9] it was above 100 µM; in [10], 38.9 µM.
With `Cc1ccc(/C(O)=C/C(=O)C(=O)NN=C(c2ccccc2)c2ccccc2)cc1`, the TGI in test [1], in test [2], in [3], in [4], in test [5] and in test [6] was above 100 µM in each case. The TGI in test [7], in [8], in test [9] and in test [10] was above 100 µM in each case.
Regarding `COC(=O)C1=C(C)N2[C@H](C(=O)O)CO[C@@]2(C)[C@H](C(=O)OC)[C@H]1c1cccc([N+](=O)[O-])c1`, the TGI in test [1], in [2], in test [3], in [4], in test [5] and in test [6] was above 100 µM throughout. Further, the TGI in test [7], in [8], in test [9] and in test [10] was above 100 µM in each case.
As to `COc1ccc(CSc2ccccc2Cn2cccc2)cc1OC`, the TGI in test [1], in [2], in [3], in test [4], in test [5] and in test [6] was above 100 µM throughout. Besides, the TGI in [7], in test [8], in test [9] and in test [10] was above 100 µM in each case.
As to `Cc1n[nH]c(=O)n1/N=C/c1ccc([N+](=O)[O-])o1`, the TGI in test [1] came out at 28.7 µM; in [2] it was 19.9 µM; in test [3], 34.3 µM; in test [4], 56 µM; in test [5], 34.6 µM; in [6], 45.6 µM. For the same compound, the TGI in test [7] was 12.1 µM; in test [8] it was above 100 µM; in [9] it was above 100 µM; in [10], 27.7 µM.
Take `CCN(c1cccc(NC(=S)Nc2ccccc2N(CC)c2cc(-c3ccccc3)no2)c1)c1cc(-c2ccccc2)no1`: the TGI in [1], in test [2], in test [3], in test [4], in test [5] and in test [6] was above 100 µM each time. The TGI in test [7], in [8], in test [9] and in test [10] was above 100 µM throughout.
In the case of `Nc1nc(Cl)c(N)c(NCC2(CO)CC(CCCc3ccccc3)C2)n1` (stereo not given), the TGI in test [1] was 99.7 µM; in test [2] it was above 100 µM; in test [3], 10.1 µM; in test [4] it was above 63.7 µM; in test [5], above 100 µM; in [6], above 55.3 µM. For the same compound, the TGI in [7] is 15.4 µM; in test [8], above 100 µM; in test [9], 67.7 µM; in test [10] it was above 100 µM.
Regarding `Brc1ccc(-c2cn3ccncc3n2)cc1`, the TGI in test [1], in test [2], in test [3], in test [4], in test [5] and in test [6] was above 100 µM in each case. Further, the TGI in [7] was above 100 µM; in test [8] it was above 100 µM; in [9], above 100 µM; in test [10], 85.6 µM.
`COc1nc(N)c(N=CC(OC(C)=O)C(OC(C)=O)C(COC(C)=O)OC(C)=O)c(=O)n1C` (stereo not given): the TGI in [1], in test [2], in test [3], in test [4], in test [5] and in test [6] was above 100 µM in each case. For the same compound, the TGI in [7], in test [8], in [9] and in [10] was above 100 µM in each case.
As to `O=C(/C=C/c1csc(-c2ccccc2)n1)NCc1ccc(C(=O)NCc2ccccc2)cc1`, the TGI in [1], in test [2], in test [3], in [4], in [5] and in test [6] was above 100 µM each time. Besides, the TGI in test [7] is above 100 µM; in [8] it was above 100 µM; in test [9], 60.5 µM; in test [10] it was above 100 µM.
